Measured values taken from PubChem BioAssay AID248 (DTP/NCI, 2004).
Where “and” joins values, the source holds several entries; their conditions need not be identical. Identical values can stand only once. Toxic doses and inconclusive results are not listed.

System: L1210 leukemia ip in BDF1 mice, survival T/C
Assay: NCI In Vivo Anticancer Drug Screen. Data for tumor model L1210 Leukemia (intraperitoneal) in B6D2F1 (BDF1) mice
Details: higher = longer survival
Method in brief: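 Mice bearing the transplanted tumor received compound or vehicle. Survival of the treated group was divided by that of the vehicle-treated control group to give the ratio.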

O=c1[nH]c(=O)n([C@H]2CCCO2)cc1F
T/C (endpoint: mean survival time, dose: 600.0 mg/kg/injection, schedule: Q04DX003 (ip), vehicle: other): 116 % of control
T/C (endpoint: mean survival time, dose: 600.0 mg/kg/injection, schedule: Q04DX003 (ip), vehicle: saline with Tween-80): 124 % of control
T/C (endpoint: mean survival time, dose: 640.0 mg/kg/injection, schedule: Q01DX009 (ip), vehicle: saline): 104 % of control
T/C (endpoint: mean survival time, dose: 700.0 mg/kg/injection, schedule: Q01DX001 (ip), vehicle: other): 111 % of control
T/C (endpoint: mean survival time, dose: 700.0 mg/kg/injection, schedule: Q01DX001 (sc), vehicle: other): 111 % of control
T/C (endpoint: mean survival time, dose: 781.0 mg/kg/injection, schedule: Q04DX002 (sc), vehicle: clinical formulation): 100 % of control
T/C (endpoint: mean survival time, dose: 977.0 mg/kg/injection, schedule: Q01DX001 (sc), vehicle: clinical formulation): 107 % of control
T/C (endpoint: mean survival time, dose: 1000.0 mg/kg/injection, schedule: Q01DX001 (ip), vehicle: other): 96 % of control
T/C (endpoint: mean survival time, dose: 1200.0 mg/kg/injection, schedule: Q04DX003 (ip), vehicle: other): 93 % of control
T/C (endpoint: mean survival time, dose: 1300.0 mg/kg/injection, schedule: Q01DX001 (ip), vehicle: Klucel (hydroxypropylcellulose) (HPC)): 150 % of control
T/C (endpoint: mean survival time, dose: 1428.0 mg/kg/injection, schedule: Q01DX001 (ip), vehicle: other): 102 % of control
T/C (endpoint: mean survival time, dose: 1428.0 mg/kg/injection, schedule: Q01DX001 (sc), vehicle: other): 101 % of control
T/C (endpoint: mean survival time, dose: 2300.0 mg/kg/injection, schedule: Q01DX001 (ip), vehicle: Klucel (hydroxypropylcellulose) (HPC)): 115 % of control
T/C (endpoint: median survival time, dose: 5.0 mg/kg/injection, schedule: Q03HX008 (ip), vehicle: other): 95 % of control
T/C (endpoint: median survival time, dose: 5.0 mg/kg/injection, schedule: Q03HX024 (ip), vehicle: other): 95 % of control
T/C (endpoint: median survival time, dose: 9.0 mg/kg/injection, schedule: Q03HX008 (ip), vehicle: other): 96 % of control
T/C (endpoint: median survival time, dose: 9.0 mg/kg/injection, schedule: Q03HX024 (ip), vehicle: other): 102 % of control
T/C (endpoint: median survival time, dose: 14.0 mg/kg/injection, schedule: Q01DX009 (ip), vehicle: other): 100 % of control
T/C (endpoint: median survival time, dose: 14.0 mg/kg/injection, schedule: Q03HX008 (ip), vehicle: other): 94 % of control
T/C (endpoint: median survival time, dose: 14.0 mg/kg/injection, schedule: Q03HX024 (ip), vehicle: other): 96 % of control
T/C (endpoint: median survival time, dose: 23.0 mg/kg/injection, schedule: Q01DX009 (ip), vehicle: other): 103 % of control
T/C (endpoint: median survival time, dose: 23.0 mg/kg/injection, schedule: Q03HX008 (ip), vehicle: other): 93 % of control
T/C (endpoint: median survival time, dose: 23.0 mg/kg/injection, schedule: Q03HX024 (ip), vehicle: other): 103 % of control
T/C (endpoint: median survival time, dose: 39.0 mg/kg/injection, schedule: Q04DX003 (ip), vehicle: other): 111 % of control
T/C (endpoint: median survival time, dose: 39.0 mg/kg/injection, schedule: Q04DX003 (oral), vehicle: other): 100 % of control
T/C (endpoint: median survival time, dose: 39.0 mg/kg/injection, schedule: Q04DX003 (sc), vehicle: other): 106 % of control
T/C (endpoint: median survival time, dose: 65.0 mg/kg/injection, schedule: Q01DX001 (ip), vehicle: other): 100 % of control
T/C (endpoint: median survival time, dose: 65.0 mg/kg/injection, schedule: Q01DX009 (ip), vehicle: other): 104 % of control
T/C (endpoint: median survival time, dose: 65.0 mg/kg/injection, schedule: Q04DX003 (ip), vehicle: other): 95 % of control
T/C (endpoint: median survival time, dose: 65.0 mg/kg/injection, schedule: Q04DX003 (oral), vehicle: other): 103 % of control
T/C (endpoint: median survival time, dose: 65.0 mg/kg/injection, schedule: Q04DX003 (sc), vehicle: other): 101 % of control
T/C (endpoint: median survival time, dose: 75.0 mg/kg/injection, schedule: Q04DX003 (ip), vehicle: water): 95 % of control
T/C (endpoint: median survival time, dose: 108.0 mg/kg/injection, schedule: Q01DX001 (ip), vehicle: other): 122 % of control
T/C (endpoint: median survival time, dose: 108.0 mg/kg/injection, schedule: Q04DX003 (ip), vehicle: other): 100 % of control and 106 % of control
T/C (endpoint: median survival time, dose: 108.0 mg/kg/injection, schedule: Q04DX003 (oral), vehicle: other): 118 % of control
T/C (endpoint: median survival time, dose: 108.0 mg/kg/injection, schedule: Q04DX003 (sc), vehicle: other): 113 % of control
T/C (endpoint: median survival time, dose: 150.0 mg/kg/injection, schedule: Q04DX003 (ip), vehicle: water): 101 % of control
T/C (endpoint: median survival time, dose: 180.0 mg/kg/injection, schedule: Q01DX001 (ip), vehicle: other): 106 % of control
T/C (endpoint: median survival time, dose: 180.0 mg/kg/injection, schedule: Q04DX003 (ip), vehicle: other): 105 % of control and 112 % of control
T/C (endpoint: median survival time, dose: 180.0 mg/kg/injection, schedule: Q04DX003 (sc), vehicle: other): 108 % of control
T/C (endpoint: median survival time, dose: 300.0 mg/kg/injection, schedule: Q04DX003 (oral), vehicle: other): 118 % of control
T/C (endpoint: median survival time, dose: 500.0 mg/kg/injection, schedule: Q04DX003 (oral), vehicle: other): 164 % of control
T/C (endpoint: median survival time, dose: 833.0 mg/kg/injection, schedule: Q04DX003 (ip), vehicle: other): 118 % of control
T/C (endpoint: median survival time, dose: 833.0 mg/kg/injection, schedule: Q04DX003 (sc), vehicle: other): 160 % of control
T/C (endpoint: median survival time, dose: 1200.0 mg/kg/injection, schedule: Q04DX003 (ip), vehicle: water): 110 % of control
T/C (endpoint: median survival time, dose: 1300.0 mg/kg/injection, schedule: Q01DX001 (ip), vehicle: other): 104 % of control
